Measurements from patent publication US11332439B2, “Anthocyanin complex synthesized from date palm leaf extract” (UNITED ARAB EMIRATES UNIVERSITY, priority 2020, dated 2022).

Test: Antioxidant activity using DPPH as a free radical (Brand-Williams method)
Type: biochemical
Conditions: for antiradical power (ARP): ARP=I/EC50, larger ARP indicates a more efficient antioxidant; for time to reach steady state in reaction with DPPH*: reaction kinetics, absorbance at 515 nm, methanol
Experimental: Antioxidant activity of the co-pigmented anthocyanin complex was assessed using DPPH as a free radical according to the Brand-Williams method. Activity of the co-pigmented anthocyanin complex was compared with two known antioxidants, ascorbic acid and Trolox. Concentrations tested are expressed as moles of antioxidant per mole DPPH. Briefly, an antioxidant solution in methanol (0.1 ml) was added to 3.9 ml of a 6×10^−5 mol/L methanol DPPH* solution. The decrease in absorbance was determined at 515 nm at 0 min, 1 min, and every 15 min until the reaction reached a plateau. The extract initial DPPH* concentration (CDPPH) in the reaction medium was calculated from a calibration curve with the equation Abs515 nm=0.0765×(CDPPH)+0.1118 as determined by linear regression (R2=0.9994). For each antioxidant concentration tested, the reaction kinetics were plotted (see FIGS. 6A-6C). From these graphs, the percentage of DPPH* remaining at the steady state was determined, and the values were transferred onto another graph showing percentage of residual DPPH* at the steady state as a function of the molar ratio of antioxidant to DPPH*. Antiradical activity was defined as the amount of antioxidant necessary to decrease the initial DPPH* concentration by 50% (Efficient Concentration=EC50 (mol/L)). The results were analyzed in terms of antiradical power (ARP), with a larger ARP indicating a more efficient antioxidant (ARP=I/EC50 AO/(mol/L) DPPH*).

SMILES	antiradical power (ARP)	time to reach steady state in reaction with DPPH*
O=C1O[C@H]([C@@H](O)CO)C(O)=C1O [ascorbic acid]	0.329	approximately 30 minutes
Cc1c(C)c2c(c(C)c1O)CCC(C)(C(=O)O)O2 (stereo not shown) [Trolox]	4.65	less than a minute
